Results taken from patent US20250009856A1, “METHODS FOR TREATING RESPIRATORY DISEASES” (MUCPharm Pty Ltd, priority 2021, published 2025).

Experiment: Dynamic viscosity after mixing with BromAc, DNase and combinations
Details: agent without DNASE: BR(25 ug/ml), NAC(20 mg/ml), or BR(250 ug/ml) + NAC(20 ug/ml); 1 hour, 37 deg C; Cont(PBS) 2.36
Method: Artificial sputa was prepared following methodology with ingredients as in earlier experiments. To 1.5 ml of artificial sputa in a vial was added 0.5 ml of reagent containing the required bromelain, NAC, DNase and their combinations. Control vials included 0.5 ml of PBS only. The mixture was vortex mixed and incubated in a shaker water bath at 37 deg C. At the end of 1 hour, the samples were retrieved, vortex mixed and equilibrated to ambient room temperature before measuring dynamic viscosity and pipette flow.
Dynamic viscosity was determined using the capillary tube method as in earlier experiments, whilst the pipette flow was evaluated using a 0.5 ml pipette inclined at 60 deg angle. The pipette flow was calculated as shown below.

In the case of CC(=O)N[C@@H](CS)C(=O)O [NAC, N-acetylcysteine], the “Dynamic viscosity (¥)” value is reported as 1.640 cSt.
